Laboratory results reported in patent US20080171705A1, “METHODS OF INDUCING AND TREATING VASCULAR DISEASE” (priority 2007, published 2008).

Tests used:
[1] = Sirolimus whole blood pharmacokinetics (LC-MS/MS); type: in vivo, apoE^−/− mice; conditions: i.p., daily, 0.5, 1.0 and 4.0 mg/kg
Protocol: (§1) Upon initiation of the pro-atherogenic diet and osmotic mini-pump implantation, mice were randomly assigned to four groups; namely, vehicle control, rapamycin or sirolimus 0.5 mg/kg, sirolimus 1.0 mg/kg and sirolimus 4.0 mg/kg body weight. The defined amount of sirolimus was dissolved in ethanol, brought up in a vehicle comprising 0.2 percent Sodium carboxymethylcellulose and 0.25 percent tween 80) and administrated to mice (i.p., daily).
Sirolimus was quantitated using liquid-liquid extraction and reverse-phase liquid chromatography mass spectrometry (LC-MS/MS). Briefly, 100 μl of mouse whole blood sample underwent protein precipitation with 5 percent Methanol/Zinc sulfate solution containing the internal standard ascomycin. After centrifugation of the resulting solution, the liquid mixture proceeded with liquid-liquid extraction with 1-chlorobutane. The combined organic extract was then blown down to dryness and reconstituted with 50:50 Methanol:20 mM ammonium acetate solution. The samples were analyzed on API-5000 using C18 reverse-phase chromatography in Multiple Reaction Monitoring (MRM) mode using atmospheric pressure chemical ionization (APCI) approach. The calibration standard curve results for sirolimus in mouse whole blood were acceptable from 0.5 ng/ml to 10,000 ng/ml with correlation coefficient of 0.998. The percent bias for the calibration standards ranged from about […] to about 8.0 percent.
The regimen of sirolimus administration (i.p., daily, 0.5, 1.0, and 4.0 mg/kg) results in significant increase of whole blood sirolimus levels in the apoE^−/− mice within 24 hours post injection. The blood drug levels reached peak level at 1 hour post injection, dropped to approximately 30 to 40 percent at 6 hours and remained at trace level at 24 hours.

apoE^−/− mice [2] = assay: Health status, body weight and re-suturing incidence post mini-pump surgery; type: in vivo
Excerpt: (§2) ApoE^−/− mice (backcrossed ten times to the C57BL/6 background) were purchased from The Jackson Laboratory. The mice were kept on a twelve-hour light/twelve-hour dark regimen upon arrival. All animal experiments were approved by the IACUC of the Consumer & Personal Product Worldwide, in accordance with AAALAC guidelines. Eight week old, male apoE^−/− mice were fed a normal mouse-chow diet (RP5001; PMI Feeds Inc., St. Louis, Mo.) and acclimated for one week before switching to a pro-atherogenic high fat, high cholesterol, diet (“Western diet”, 21% fat, 0.2% cholesterol, diet No. 88137, Harlan-Teklad, Madison, Wis.) for four weeks.
(§3) Upon initiation of the pro-atherogenic diet, Alzet osmotic mini-pumps (Model 2004; ALZA Scientific Products, Mountain View, Calif.) were implanted into the apoE^−/− mice subcutaneously. The mini-pumps were loaded with angII (EMD Biosciences, San Diego, Calif.) at the delivery rate of 1,000 ng/min/kg for twenty-eight days. The mice were anesthetized using isoflurane for the implantation of the mini-pumps. Small incisions in the lower back of the neck were made and the mini-pumps were inserted into the subcutaneous space of the mice. The incisions were then closed using sterile staplers. Triple antibiotic ointment was applied to each incision post surgery. The mice on the high fat, high cholesterol diet were sacrificed by CO2 inhalation twenty-eight days post mini-pump implantation as is explained in detail subsequently.
as §1
The data is depicted as re-suturing incedince post surgery per group size. A clear increase of the suture index is observed in response to sirolimus administration in a dose dependent manner.

[3] = Plasma lipids (total cholesterol, triglycerides, LDL and HDL cholesterol); type: in vivo, apoE^−/− mice
Excerpt: as §2, §3, §1
Plasma triglyceride and total cholesterol levels were determined via an automated enzymatic technique (Equal Diagnostic Inc., Exton, Pa.). Mouse lipoproteins were separated by fast protein liquid chromatography (FPLC) analysis of plasma using 2 Superose 6 columns in series (Pharmacia Biotech Inc., Piscataway, N.J.). Aliquots of mouse plasma (100 μl) were injected onto the column, separated with a buffer containing 0.15 M NaCl, 0.01 M Na2HPO4, and 0.1 mM EDTA (pH 7.5) at a flow rate of 0.5 mL/min, and analyzed for lipids.

apoE^−/− mice [4] = assay: Abdominal aortic adventitia lesion analysis (incidence and severity); type: in vivo; conditions: 1 of 22 mice; vehicle control 30 percent, 3 of 10 mice
Excerpt: ApoE^−/− mice (backcrossed ten times to the C57BL/6 background) were purchased from The Jackson Laboratory. The mice were kept on a twelve-hour light/twelve-hour dark regimen upon arrival. All animal experiments were approved by the IACUC of the Consumer & Personal Product Worldwide, in accordance with AAALAC guidelines. Eight week old, male apoE^−/− mice were fed a normal mouse-chow diet (RP5001; PMI Feeds Inc., St. Louis, Mo.) and acclimated for one week before switching to a pro-atherogenic high fat, high cholesterol, diet (“Western diet”, 21% fat, 0.2% cholesterol, diet No. 88137, Harlan-Teklad, Madison, Wis.) for four weeks. […]
The abdominal aorta was subjected to abdominal aortic adventitia lesion analysis. […] Classification of the adventitia lesions was determined according to the scale based on the gross appearance of the aorta reported by Daugherty et al. Briefly, I: Dilated lumen in the supra-renal region of the aorta with no thrombus; II: Remodeled tissue in the supra-renal region that frequently contains thrombus; III: A pronounced bulbous form of type II that contains thrombus; IV: A form in which there are multiple adventitia lesions containing thrombus, some overlapping, in the suprarenal area of the aorta.

With `CO[C@H]1C[C@@H]2CC[C@@H](C)[C@@](O)(O2)C(=O)C(=O)N2CCCC[C@H]2C(=O)O[C@H]([C@H](C)C[C@@H]2CC[C@@H](O)[C@H](OC)C2)CC(=O)[C@H](C)/C=C(\C)[C@@H](O)[C@@H](OC)C(=O)[C@H](C)C[C@H](C)/C=C/C=C/C=C/1C` [sirolimus] the “blood drug level at 6 hours (relative to peak level)” value ([1]; 6 hours post injection) was 30 to 40%, the “blood drug level at 24 hours” value ([1]; 24 hours post injection) was “trace level” and the “time of peak whole blood drug level post injection” value ([1]; whole blood) was 1 h. For the same molecule, the body weight (apoE^−/− mice [2]; all 3 sirolimus treated groups, no statistical significance) was “trend of decreased body weight”, the health status (apoE^−/− mice [2]; i.p., daily, 0.5, 1.0 and 4.0 mg/kg, angII infusion, high fat, high cholesterol diet) was “not overtly affected” and the “re-suturing incidence post surgery (wound healing)” value (apoE^−/− mice [2]; post mini-pump implantation, dose dependent) was “increased incidence of re-suturing”. The “elevation of LDL cholesterol” value ([3]; all sirolimus treated mice) was over 60%, the “increase of plasma total cholesterol level vs vehicle control” value ([3]; i.p., daily, 0.5, 1.0 and 4.0 mg/kg, angII, Western diet, 28 days) was 44 to 50% and the “increase of HDL cholesterol” value ([3]; mice receiving sirolimus) was 55 to 81%. For the same molecule, the triglyceride ([3]; regardless of the dosage employed) was “trend of elevated triglyceride” and the “incidence of abdominal aortic adventitia lesion” value (apoE^−/− mice [4]) was 4.5%.
